Results taken from patent US20240299359A1, “PHARMACEUTICAL COMPOSITION FOR ANIMALS CONTAINING 5-HYDROXY-METHYLIMIDAZOLIDINE-2,4-DIONE COMPOUND AS ACTIVE INGREDIENT” (KYONGBO PHARM. CO., LTD., priority 2021, published 2024).
Where “and” joins values, the source holds several entries; their conditions need not be identical. Equal values may be shown once.

Key:
beagles = assay: 13-week repeated oral toxicity: eye test; assay type: in vivo, beagle; details: before and after administration, 13 weeks
Procedure: Eye test were conducted in the afternoon in the blood test day and blood donation day before administration (pre), the 4th week (day 29) after administration, the 8th week (day 57), and the 13th week (day 92) after administration. After observing the appearance of the left and right eyes on all the subjects, both the left and right eyes were dilated with a mydriatic agent (Mydrin®-P eye drops, ingredients: tropicamide/phenylephrine hydrochloride Taejun Pharmaceutical), and then the vitreous body and retina were tested with an ophthalmoscope (Vantage Plus LED Convertible Wired, Keeler Instruments Inc. USA).

[1] = system: dogs with chronic renal failure; assay: Therapeutic effect on dogs with chronic renal failure (blood creatinine); assay type: in vivo, dog; details: change before/after
Procedure: An experiment was conducted to determine the therapeutic effect and optimal dosage of 5-hydroxy-1-methylimidazolidine-2,4-dione in animal kidney disease. Dogs (5 dogs per group) diagnosed with chronic renal failure and with a blood creatinine concentration of 1.4 mg/dL or higher were treated with 5-hydroxy-methylimidazolidine-2,4-dione at […] of 0, 12.5, 25, 50, and 100 mg/kg for 2 months, and the change in blood creatinine concentration (AsCr) before and after administration was determined.

[2] = 13-week repeated oral toxicity: weight measurement; assay type: in vivo, beagle
Procedure: During the 13-week test period starting from the day before administration, the weight was measured a total of 15 times before administration (pre), before administration on the day of administration, and every week over the 13-week test period after the first administration at a predetermined time (remaining feed measurement time) before administration of the test substance (on every Tuesday during the test period).

With `CN1C(=O)NC(=O)C1O` (stereo not shown) [KBP-001, 5-hydroxy-1-methylimidazolidine-2,4-dione] the eye test findings (beagles) was “no specific findings were observed”, the ΔsCr ([1]; high-dose 50 mg/kg for 2 months, 50 mg/kg) was -0.02 ± 0.22 mg/dL and the ΔsCr ([1]; high-dose 50 mg/kg for 2 months, listed as 5-hydroxy-1-methylimidazolidine-2,4-dione, 50 mg/kg) was -0.02 ± 0.22 mg/dL. It also gave a ΔsCr ([1]; highest-dose 100 mg/kg for 2 months, 100 mg/kg) of 0.07 ± 0.20 mg/dL, a ΔsCr ([1]; highest-dose 100 mg/kg for 2 months, listed as 5-hydroxy-1-methylimidazolidine-2,4-dione, 100 mg/kg) of 0.07 ± 0.20 mg/dL and a ΔsCr ([1]; low-dose 12.5 mg/kg for 2 months, 12.5 mg/kg) of 0.58 ± 0.49 mg/dL. The ΔsCr ([1]; low-dose 12.5 mg/kg for 2 months, listed as 5-hydroxy-1-methylimidazolidine-2,4-dione, 12.5 mg/kg) was 0.58 ± 0.49 mg/dL, the ΔsCr ([1]; medium-dose 25 mg/kg for 2 months, 25 mg/kg) was 0.10 ± 0.34 mg/dL and the ΔsCr ([1]; medium-dose 25 mg/kg for 2 months, listed as 5-hydroxy-1-methylimidazolidine-2,4-dione, 25 mg/kg) was 0.10 ± 0.34 mg/dL. The Weight ([2]; 200 mg/kg repeated oral (G2), female, week 0, individual animals) was 9.6 (2×) and 9.1, the Weight, Mean ([2]; 200 mg/kg repeated oral (G2), female, week 0, mean) was 9.4 kg and the Weight ([2]; 200 mg/kg repeated oral (G2), female, week 1, individual animals, in kg (unit assumed)) was 9.5 and 9.3 and 9.9. For the same molecule, the Weight, Mean ([2]; 200 mg/kg repeated oral (G2), female, week 1, mean) was 9.6 kg, the Weight ([2]; 200 mg/kg repeated oral (G2), female, week 2, individual animals, in kg (unit assumed)) was 9.4 and 9.2 and 9.8 and the Weight, Mean ([2]; 200 mg/kg repeated oral (G2), female, week 2, mean) was 9.5 kg. The Weight ([2]; 200 mg/kg repeated oral (G2), female, week 3, individual animals, in kg (unit assumed)) was 9.4 and 9.1 and 9.9, the Weight, Mean ([2]; 200 mg/kg repeated oral (G2), female, week 3, mean) was 9.5 kg and the Weight ([2]; 200 mg/kg repeated oral (G2), female, week 4, individual animals, in kg (unit assumed)) was 9.7 and 9.4 and 9.9. The Weight, Mean ([2]; 200 mg/kg repeated oral (G2), female, week 4, mean) was 9.7 kg, the Weight ([2]; 200 mg/kg repeated oral (G2), female, week 5, individual animals, in kg (unit assumed)) was 9.7 and 9.4 and 9.9 and the Weight, Mean ([2]; 200 mg/kg repeated oral (G2), female, week 5, mean) was 9.7 kg. For the same molecule, the Weight ([2]; 200 mg/kg repeated oral (G2), female, week 6, individual animals) was 9.6 (2×) and 9.1, the Weight, Mean ([2]; 200 mg/kg repeated oral (G2), female, week 6, mean) was 9.4 kg and the Weight ([2]; 200 mg/kg repeated oral (G2), female, week 7, individual animals, in kg (unit assumed)) was 9.6 and 9.3 and 9.7. The Weight, Mean ([2]; 200 mg/kg repeated oral (G2), female, week 7, mean) was 9.5 kg, the Weight ([2]; 200 mg/kg repeated oral (G2), female, week 8, individual animals, in kg (unit assumed)) was 9.5 and 9.3 and 9.8 and the Weight, Mean ([2]; 200 mg/kg repeated oral (G2), female, week 8, mean) was 9.5 kg. For the same molecule, the Weight ([2]; 200 mg/kg repeated oral (G2), female, week 9, individual animals, in kg (unit assumed)) was 9.6 and 9.4 and 9.9, the Weight, Mean ([2]; 200 mg/kg repeated oral (G2), female, week 9, mean) was 9.6 kg and the Weight ([2]; 200 mg/kg repeated oral (G2), female, week 10, individual animals, in kg (unit assumed)) was 9.6 and 9.3 and 10.0. For the same molecule, the Weight, Mean ([2]; 200 mg/kg repeated oral (G2), female, week 10, mean) was 9.6 kg, the Weight ([2]; 200 mg/kg repeated oral (G2), female, week 11, individual animals) was 9.5 (2×) and 10.1 and the Weight, Mean ([2]; 200 mg/kg repeated oral (G2), female, week 11, mean) was 9.7 kg. The Weight ([2]; 200 mg/kg repeated oral (G2), female, week 12, individual animals, in kg (unit assumed)) was 9.6 and 9.5 and 10.0, the Weight, Mean ([2]; 200 mg/kg repeated oral (G2), female, week 12, mean) was 9.7 kg and the Weight ([2]; 200 mg/kg repeated oral (G2), female, week 13, individual animals, in kg (unit assumed)) was 9.7 and 9.5 and 10.2. The Weight, Mean ([2]; 200 mg/kg repeated oral (G2), female, week 13, mean) was 9.8 kg, the Weight ([2]; 200 mg/kg repeated oral (G2), female, week pre, individual animals) was 9.6 (2×) and 9.1 and the Weight, Mean ([2]; 200 mg/kg repeated oral (G2), female, week pre, mean) was 9.4 kg. The Weight ([2]; 200 mg/kg repeated oral (G2), male, week 0, individual animals) was 10.1 (2×) and 10.2, the Weight, Mean ([2]; 200 mg/kg repeated oral (G2), male, week 0, mean) was 10.1 kg and the Weight ([2]; 200 mg/kg repeated oral (G2), male, week 1, individual animals) was 10.1 (2×) and 10.2. For the same molecule, the Weight, Mean ([2]; 200 mg/kg repeated oral (G2), male, week 1, mean) was 10.1 kg, the Weight ([2]; 200 mg/kg repeated oral (G2), male, week 2, individual animals, in kg (unit assumed)) was 9.9 and 10.1 and 10.0 and the Weight, Mean ([2]; 200 mg/kg repeated oral (G2), male, week 2, mean) was 10 kg. For the same molecule, the Weight ([2]; 200 mg/kg repeated oral (G2), male, week 3, individual animals) was 10.0 and 10.1 (2×), the Weight, Mean ([2]; 200 mg/kg repeated oral (G2), male, week 3, mean) was 10.1 kg and the Weight ([2]; 200 mg/kg repeated oral (G2), male, week 4, individual animals) was 10.0 and 10.3 (2×). The Weight, Mean ([2]; 200 mg/kg repeated oral (G2), male, week 4, mean) was 10.2 kg, the Weight ([2]; 200 mg/kg repeated oral (G2), male, week 5, individual animals, in kg (unit assumed)) was 10.1 and 10.5 and 10.3 and the Weight, Mean ([2]; 200 mg/kg repeated oral (G2), male, week 5, mean) was 10.3 kg. For the same molecule, the Weight ([2]; 200 mg/kg repeated oral (G2), male, week 6, individual animals, in kg (unit assumed)) was 10.0 and 10.1 and 10.3, the Weight, Mean ([2]; 200 mg/kg repeated oral (G2), male, week 6, mean) was 10.1 kg and the Weight ([2]; 200 mg/kg repeated oral (G2), male, week 7, individual animals) was 10.1 and 10.3 (2×). For the same molecule, the Weight, Mean ([2]; 200 mg/kg repeated oral (G2), male, week 7, mean) was 10.2 kg, the Weight ([2]; 200 mg/kg repeated oral (G2), male, week 8, individual animals, in kg (unit assumed)) was 10.1 and 10.3 and 10.2 and the Weight, Mean ([2]; 200 mg/kg repeated oral (G2), male, week 8, mean) was 10.2 kg. The Weight ([2]; 200 mg/kg repeated oral (G2), male, week 9, individual animals, in kg (unit assumed)) was 10.1 and 10.4 and 10.3, the Weight, Mean ([2]; 200 mg/kg repeated oral (G2), male, week 9, mean) was 10.3 kg and the Weight ([2]; 200 mg/kg repeated oral (G2), male, week 10, individual animals, in kg (unit assumed)) was 10.2 and 10.4 and 10.3. For the same molecule, the Weight, Mean ([2]; 200 mg/kg repeated oral (G2), male, week 10, mean) was 10.3 kg, the Weight ([2]; 200 mg/kg repeated oral (G2), male, week 11, individual animals, in kg (unit assumed)) was 10.1 and 10.4 and 10.3 and the Weight, Mean ([2]; 200 mg/kg repeated oral (G2), male, week 11, mean) was 10.3 kg. The Weight ([2]; 200 mg/kg repeated oral (G2), male, week 12, individual animals) was 10.2 (2×) and 10.4, the Weight, Mean ([2]; 200 mg/kg repeated oral (G2), male, week 12, mean) was 10.3 kg and the Weight ([2]; 200 mg/kg repeated oral (G2), male, week 13, individual animals) was 10.2 (2×) and 10.4. For the same molecule, the Weight, Mean ([2]; 200 mg/kg repeated oral (G2), male, week 13, mean) was 10.3 kg, the Weight ([2]; 200 mg/kg repeated oral (G2), male, week pre, individual animals, in kg (unit assumed)) was 10.1 and 10.3 and 10.2 and the Weight, Mean ([2]; 200 mg/kg repeated oral (G2), male, week pre, mean) was 10.2 kg. It also gave a Weight, Mean ([2]; 500 mg/kg repeated oral (G3), female, week 0, mean) of 9.5 kg.
